Measurements from patent US20220282222A1, “BIO-PRINTED KIDNEY TISSUE” (MURDOCH CHILDREN'S RESEARCH INSTITUTE, priority 2019, published 2022).
“Also recorded” adds a separate entry of the source. Read-outs that look alike come from different tables or passages of the source.

How the values were obtained:
[1] = system: bio-printed kidney organoids; experiment: Organoid viability assessment by ATP content (CellTiter-Glo / CellTiter-Glo 3D) after drug treatment; settings: for Cell viability as measured by cellular ATP content: 96-well format, 72-hour treatment, wide concentration range (1.5 μg/mL to 25 mg/mL); for IC50: Homo sapiens, 72 h
Experimental: (§1) Doxorubicin (Sigma-Aldrich, D1515) stock solution was prepared in DMSO. Amikacin, Tobramycin, Gentamycin, Neomycin, and Streptomycin were all procured through Sigma Aldrich (St. Louis, Mo.) and prepared as a 25 mg/ml solution in APEL media. Dosing for 6-well nephrotoxicity studies was performed by initially diluting doxorubicin DMSO stock in APEL media, and subsequently diluting further with additional media to achieve concentrations ranging from 0.3 to 10 μM. Dosing for 96-well nephrotoxicity evaluation was performed by serial dilution. For Doxorubicin, serial dilution of DMSO stocks was added to APEL media to achieve concentrations ranging from 24 nM to 25 μM. Aminoglycoside stock solutions were diluted serially with APEL media to generate dosing concentrations ranging from 1.5 μg/mL to 25 mg/mL. Drug dosing was initiated after day 21 or day 22 of the differentiation protocol. Dosing was performed by applying the full well volume of APEL medium±test article to the apical basket of a Transwell permeable support (4 mL for 6-well plates, 300 μL for 96-well plates). As media containing test articles was added to the Transwell permeable support, the organoids were fully submerged and exposed to any added compounds as the apical and basolateral compartments equilibrated. Drug-supplemented medium was replaced every other day until designated harvest time point.
Kidney organoid viability following drug treatment was assessed by measuring ATP content with CellTiter-Glo or CellTiter-Glo 3D viability assays (Promega, Madison, Wis., USA). In brief, harvested organoids from bio-printed in 6-well plates were individually loaded into Precellys tubes (Bertin Technologies, Bretonneux, France) with CellTiter-Glo buffer and dissociated using a Precellys 24 tissue homogenizer (Bertin Technologies, Bretonneux, France). Homogenized organoids were incubated at room temperature for 10 minutes, then centrifuged at 1000 g for 2 minutes to separate buffer from homogenizing beads. Supernatants were transferred to a white opaque 96-well plate for luminescence measurement on a microplate reader (BMG Labtech, Germany). […] To analyse the ATP content in organoids bio-printed on 96-well plates, all media was aspirated and CellTiter-Glo 3D reagent was added to the apical chamber of Transwell permeable support. The plate was shaken at 400 rpm for 5 minutes at room temperature, and then allowed to sit for 25 minutes prior to luminescent measurement in a white opaque 96-well plate on a microplate reader (BMG Labtech, Germany). Viability analysis was reported as percent of control by normalizing the ATP content of treated organoids relative to control organoids. […]

[2] = system: podocytes of the organoid glomeruli; experiment: Immunofluorescence analysis of bio-printed organoid sections after Doxorubicin treatment; assay type: cell-based, human; settings: 10 μM Doxorubicin, 72 hours
Experimental: For paraffin-embedded organoids, deparaffinized sections were antigen retrieved in citrate buffer, pH 6.0 (Diagnostic BioSystems, Pleasonton, CA #K035) then blocked in 5% chick serum diluted in TBS-T (v/v) prior to immunofluorescence. For whole mount organoids, organoid harvest, fixation and blocking, and immunofluorescence of prepared sections and whole organoids was performed as described previously (Vanslambrouck J M, et al. J Am Soc Nephrol 30, 1811-1823 (2019)). Images were obtained as described in Vanslambrouck J M, et al. or using an Andor spinning disk confocal microscope with Nikon 25×1.05NA silicone immersion objective.
Doxorubicin (Sigma-Aldrich, D1515) stock solution was prepared in DMSO. Amikacin, Tobramycin, Gentamycin, Neomycin, and Streptomycin were all procured through Sigma Aldrich (St. Louis, Mo.) and prepared as a 25 mg/ml solution in APEL media. Dosing for 6-well nephrotoxicity studies was performed by initially diluting doxorubicin DMSO stock in APEL media, and subsequently diluting further with additional media to achieve concentrations ranging from 0.3 to 10 μM. Dosing for 96-well nephrotoxicity evaluation was performed by serial dilution. For Doxorubicin, serial dilution of DMSO stocks was added to APEL media to achieve concentrations ranging from 24 nM to 25 μM. […]

[3] = system: bio-printed kidney organoids; experiment: Quantitative RT-PCR gene expression analysis following drug exposure; assay type: cell-based, human; settings: 72 hours
Experimental: as §1
Total RNA extraction from kidney organoids following drug exposure was performed using an Rneasy Mini kit (Qiagen, Germany) per manufacturer's instructions. RNA was quantified with spectrophotometry with a NanoDrop 2000 (Thermo Fisher, Carlsbad, Calif.). To analyse gene expression, TaqMan Fast One-Step qPCR Master Mix (Applied Biosystems, Foster City, Calif.), TaqMan Probes for genes of interest (ThermoFisher, Carlsbad, Calif.), and house-keeping gene probes (Applied Biosystems, Foster City, Calif.) were combined in assigned wells with RNA. All qPCR reactions were performed and analysed on a StepOnePlus qRT-PCR system (Applied Biosystems, Foster City, Calif.). All data was normalized to house-keeping gene GAPDH prior to normalizing to control samples.

[4] = 10 μM Doxorubicin, normalized to GAPDH and control

Row | Compound | Cell viability as measured by cellular ATP content [1] | Caspase 3 activation (cleaved caspase 3, apoptosis) in podocytes [2] | MAFB staining within podocytes of organoid glomeruli [2] | IC50 ([1]; read-out: 6-well IC50 (viability, ATP content)) | IC50 ([1]; read-out: 96-well IC50 (viability, ATP content)) | Expression of podocyte marker NPHS1 ([3]; 2 μM Doxorubicin) | Expression of podocyte marker PODXL ([3]; 2 μM Doxorubicin) | Expression of proximal tubule gene CUBN ([3]; 2 μM or 10 μM Doxorubicin) | Expression of apoptotic indicator Bcl2-associated X protein (BAX) [3, 4] | Expression of kidney injury molecule KIM1 (HAVCR) [3, 4]
1 | Gentamycin | decreased in a concentration-dependent fashion | – | – | – | – | – | – | – | – | –
2 | Neomycin | decreased in a concentration-dependent fashion | – | – | – | – | – | – | – | – | –
3 | COc1cccc2c1C(=O)c1c(O)c3c(c(O)c1C2=O)C[C@@](O)(C(=O)CO)C[C@@H]3O[C@H]1C[C@H](N)[C@H](O)[C@H](C)O1 [Doxorubicin] | – | induction of apoptosis; also recorded: specific activation of caspase 3 | podocyte specific loss of MAFB expression; also recorded: loss of MAFB staining | 3.9 ± 1.8 µM | 3.1 ± 1 µM | downregulated | downregulated | only downregulated in response to 10 μM Doxorubicin | upregulation | upregulation
